Source: publication PMC10846240, “Pharmacokinetic/pharmacodynamic integration of amphenmulin: a novel pleuromutilin derivative against Mycoplasma gallisepticum” (Microbiology Spectrum, 2023)
Several values for one entry are separate records, joined by “and”; a condition that tells them apart may be missing. Identical values can stand only once. Like-named read-outs stand apart in the source and are kept apart here.

Columns and labels:
[1] = design: method as in PMID 29722184, PMID 32079232; settings: cited from earlier work
[2] = In vivo pharmacokinetics of amphenmulin in chickens (IV, IM, PO); settings: for Cmax: mean ± SD, n = 10; for bioavailability: read-out: F (absolute bioavailability)
Protocol: The M. gallisepticum standard strain S6 was obtained from the National Center for Veterinary Culture Collection (Beijing, China). Amphenmulin (98%) was synthesized by our laboratory according to the published methods ([10]). Acetonitrile and all other liquid chemicals used were purchased from Macklin Biochemical Technology Co., Ltd (Shanghai, China). M. gallisepticum in this study was cultured under standard conditions of 37°C with the following nutrients: swine serum, M. gallisepticum artificial medium base from Qingdao Hope Biological Technology Co., Ltd (Qingdao, China), nicotinamide adenine dinucleotide (NADH) and cysteine from Aladdin Biochemical Technology Co., Ltd (Shanghai, China). Thirty healthy adult yellow-feathered broilers weighing 1.58 to 2.04 kg were used in this study, caged, fed without antibiotics and anticoccidial drugs, and watered and fed ad libitum. All animal experimental procedures were approved by the Animal Ethics Committee of South China Agricultural University (Approval number: 2023a015).
In this study, the dose design for the administration of amphenmulin was mainly based on the previous study report on tiamulin ([15]). The chickens were randomly divided into three groups (10 per group) and given a single dose of 20 mg/kg of body weight (bw.) of amphenmulin via intravenous, intramuscular injection, and oral gavage, respectively. Blood samples were collected from the brachial wing vein of each chicken at 0, 5, 10, 15, 30, 45 min, 1, 2, 3, 4, 6, 8, 10, 12, 24 h after intravenous injection, and at 0, 3, 6, 9, 12, 20, […], 45 min, 1, 2, 4, 8, 12, 24 h after oral and intramuscular administrations. The blood samples were centrifuged at 3,500 rpm for 10 min. The plasma was collected and stored at −20°C until analysis.
After the plasma samples were restored to room temperature, 200 µL was taken and vortexed with 800 µL of acetonitrile, centrifuged at 12,000 rpm for 10 min. The supernatant was filtered through a 0.22-µm filter and analyzed using a high-performance liquid chromatography-tandem mass spectrometry (HPLC-MS/MS) system (Agilent 1200 HPLC and Applied Biosystem API4000 mass spectrometer, ABI Sciex, USA). Amphenmulin was separated on a C18 column (150 mm × 2 mm, 5 µm) at a flow rate of 0.5 mL/min, with a mobile phase of 0.1% aqueous formic acid and acetonitrile (40:60, vol/vol). The electrospray ionization (ESI) source of the mass spectrometer was operated in positive ion mode for multi-reaction monitoring, with the following ion source parameters: ion spray voltage 4,500 V, collision gas 5 psi, ion source gas1 50 psi, ion source gas2 55 psi, curtain gas 20 psi, source temperature 400°C.
Additionally, the plasma concentration–time data of amphenmulin in each individual were further analyzed using the non-compartmental method in Phoenix 8.1 (Certara, USA) to calculate pharmacokinetic parameters, in which the area under the curve (AUC) was calculated using the log-linear trapezoidal method, and the results were reported as mean ± standard deviation (SD).

[3] = tested on: methicillin-resistant Staphylococcus aureus (MRSA); settings: cited from earlier work
M. gallisepticum = experiment: PK/PD integration, inhibitory Sigmoid Emax model; assay type: cell-based, Mycoplasma gallisepticum; settings: for Emax: inhibitory Emax model
Protocol: Phoenix software was used to analyze the in vitro concentration–time data of amphenmulin and calculate the AUC and peak concentration (Cmax), which were combined with MIC to obtain PK/PD parameters. Concurrently, the anti-mycoplasma effect was derived from the dynamic time–kill curve, which was analyzed with the PK/PD index using an inhibitory Sigmoid Emax model as follows:
E=E0−(E0−Emax)×CeN/EC50N+CeN
E, anti-mycoplasma effect, the change in M. gallisepticum counts during 24 h of cultivation; E0, M. gallisepticum change in control (without drug); Emax, maximal effect produced by amphenmulin against M. gallisepticum during 24 h; Ce, PK/PD parameters (AUC/MIC or Cmax/MIC); EC50, the Ce value needed to produce 50% of maximal effect; N, Hill coefficient, the slope of the fitted curve.

[4] = yellow-feathered broilers, plasma, 20 mg/kg bw., IM
[5] = yellow-feathered broilers, plasma, 20 mg/kg bw., IV
[6] = yellow-feathered broilers, plasma, 20 mg/kg bw., PO

C=C[C@]1(C)C[C@@H](OC(=O)CSc2ccccc2N)[C@]2(C)[C@H](C)CC[C@]3(CCC(=O)[C@H]32)[C@@H](C)[C@@H]1O [amphenmulin, 22-(2-amino-phenylsulfanyl)-22-deoxypleuromutilin]
acute toxicity [1]: practically non-toxic
T1/2Ke ([2]; 20 mg/kg bw., IM): 5.50 ± 1.43 h
T1/2Ke ([2]; 20 mg/kg bw., IV, 20 mg/kg): 2.13 h and 2.13 ± 0.63 h
T1/2Ke ([2]; 20 mg/kg bw., PO): 2.60 ± 0.87 h
oral absorption rate constant (Ka) ([2]; oral, residual method): approximately 3.15 1/h
Tmax ([2]; yellow-feathered broilers, chicken, plasma, other: oral and intramuscular, 20 mg/kg bw., two extravascular routes (oral and intramuscular), read-out: time to peak levels after administration): < 0.5 h
AUC(0-inf) [2, 4]: 9850 ± 2720 ng·h/mL
AUC(0-t) [2, 4]: 9160 ± 2650 ng·h/mL
MRT [2, 4]: 7.89 ± 2.75 h
k el [2, 4]: 3.61e-05 s⁻¹
Cmax [2, 4]: 1930 ± 480 ng/mL
bioavailability [2, 4]: 52.1%
Tmax ([2]; yellow-feathered broilers, plasma, 20 mg/kg bw., IM, read-out: Tmax): 0.38 ± 0.2 h
AUC(0-inf) [2, 5]: 18900 ± 6030 ng·h/mL
AUC(0-t) [2, 5]: 18800 ± 6090 ng·h/mL
MRT [2, 5]: 3.13 ± 1.05 h
clearance [2, 5]: 19.5 mL/min/kg
k el [2, 5]: 9.72e-05 s⁻¹
Vd ([2]; yellow-feathered broilers, plasma, 20 mg/kg bw., IV, read-out: Vss): 3.64 ± 1.58 L/kg
AUC(0-inf) [2, 6]: 1110 ± 430 ng·h/mL
AUC(0-t) [2, 6]: 1060 ± 400 ng·h/mL
MRT [2, 6]: 2.98 ± 1.05 h
k el [2, 6]: 8.06e-05 s⁻¹
Cmax [2, 6]: 730 ± 360 ng/mL
bioavailability [2, 6]: 5.88%
Tmax ([2]; yellow-feathered broilers, plasma, 20 mg/kg bw., PO, read-out: Tmax): 0.25 ± 0.11 h
antibacterial activity against MRSA compared with tiamulin [3]: better antibacterial activity
static kill curve against MRSA, character of effect [3]: more time-dependent tendency and bacteriostatic effects
AUC24 h/MIC target value (M. gallisepticum; for a decrease of 1 Log10CFU/mL of M. gallisepticum): 904.05 h
Emax (M. gallisepticum; index AUC24 h/MIC): −2.4214 Log10CFU/mL
Emax (M. gallisepticum; index Cmax/MIC): −3.3571 Log10CFU/mL
